Measured values: patent US11744824B2, “2-amino-3-carbonyl imidazopyridine and pyrazolopyridine compounds” (1ST Biotherapeutics, Inc., priority 2020, dated 2023)

The compounds below were run against GST-tagged recombinant human RIP2 (Homo sapiens (Human), UniProt O43353) (assay: RIP2 Kinase Assay (ADP-Glo)). Conditions: in vitro kinase activity, ATP 25 μM.
Sequence of GST-tagged recombinant human RIP2 (O43353 whole entry): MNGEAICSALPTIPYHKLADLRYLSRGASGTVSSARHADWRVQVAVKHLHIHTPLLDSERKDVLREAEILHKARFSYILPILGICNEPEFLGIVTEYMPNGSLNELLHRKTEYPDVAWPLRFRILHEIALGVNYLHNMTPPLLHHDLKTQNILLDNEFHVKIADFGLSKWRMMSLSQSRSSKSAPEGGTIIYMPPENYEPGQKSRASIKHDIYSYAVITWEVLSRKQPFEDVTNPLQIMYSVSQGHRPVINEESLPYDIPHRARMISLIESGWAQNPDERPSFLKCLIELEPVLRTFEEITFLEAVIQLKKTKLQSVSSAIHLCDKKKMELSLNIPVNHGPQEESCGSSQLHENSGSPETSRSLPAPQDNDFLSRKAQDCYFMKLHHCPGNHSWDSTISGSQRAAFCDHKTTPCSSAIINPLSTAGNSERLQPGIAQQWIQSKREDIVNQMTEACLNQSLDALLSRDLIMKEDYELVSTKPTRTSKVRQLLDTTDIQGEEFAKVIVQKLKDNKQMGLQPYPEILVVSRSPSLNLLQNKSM
Format: biochemical
Description: GST-tagged recombinant human RIP2 (25 ng) is incubated with 5 μL of compounds (0.5% DMSO), 5 μL of MBP (0.5 μg/μl) and 5 μL of ATP (25 μM) in buffer (40 mM Tris, 7.5; 20 mM MgCl2; 0.1 mg/ml BSA; 50 μM DTT). The assay was started by incubating the reaction mixture in a 96-well plate at 30° C. for 60 minutes. After the incubation, 25 μL ADP-Glo reagent was added, and the reaction was incubated at 30° C. for 40 minutes to stop the reaction and degrade residual ATP. The ADP product was then converted to ATP by adding 50 μL per well of detection reagent. Luminescence was detected after 30 minutes room temperature incubation with the Molecular device I3X plate reader. The IC50 values were calculated from a series of percent inhibition values determined at a range of inhibitor concentration using software routines as implemented in the GraphPad Prism 7 software and SigmaPlot 13.0.
`Nc1nc2ccc(-c3cncs3)cn2c1C(=O)[C@@H]1C[C@@H]1F` [Example 30] was tested, and the IC50 was > 1000 nM. With `Cc1c(-c2ccc3nc(N)c(C(=O)[C@@H]4C[C@H]4F)n3c2)ccc2[nH]ccc12` [Example 162] the IC50 was 1 to 100 nM. In the case of `C=Cc1c(F)cccc1-c1ccc2nc(N)c(C(=O)[C@@H]3C[C@@H]3F)n2c1` [Example 145], the IC50 is reported as 1 to 100 nM. For `CC(=O)c1ccc(-c2ccc3nc(N)c(C(=O)[C@@H]4C[C@@H]4F)n3c2)c(C)c1` [Example 38], the IC50 was > 1000 nM. `Cc1c(F)cccc1-c1ccc2nc(N)c(C(=O)[C@H]3C[C@H]3F)n2c1` [Example 35] gave an IC50 of 101 to 500 nM. Work on `Cc1ccc(C(F)(F)F)cc1-c1ccc2nc(N)c(C(=O)[C@@H]3C[C@@H]3F)n2c1` [Example 45] yielded an IC50 of 101 to 500 nM. With `CN(C)c1c(F)c(Cl)c(-c2ccc3nc(N)c(C(=O)NC4CC4)n3c2)c2cn[nH]c12` [Example 149] the IC50 was > 1000 nM. With `CNc1nc2ccc(-c3cccc(F)c3C)cn2c1C(=O)[C@@H]1C[C@@H]1F` [Example 54, (6-(3-fluoro-2-methylphenyl)-2-(methylamino)imidazo[1,2-a]pyridin-3-yl)((1S,2S)-2-fluorocyclopropyl)methanone] the IC50 was > 1000 nM. With `Nc1nc2ccc(-c3cccc(F)c3CCF)cn2c1C(=O)[C@@H]1C[C@@H]1F` [Example 136] the IC50 was > 1000 nM. `Nc1nc2ccc(-c3cnc4[nH]ccc4c3)cn2c1C(=O)c1ccncn1` [Example 78] was tested, and the IC50 was 1 to 100 nM. Compound `Nc1nc2ccc(-c3cccc(F)c3CCCF)cn2c1C(=O)[C@@H]1C[C@@H]1F` [Example 131] has an IC50 of 101 to 500 nM. Compound `Nc1nc2ccc(-c3cccc(F)c3OCCF)cn2c1C(=O)[C@@H]1C[C@@H]1F` [Example 120] has an IC50 of 101 to 500 nM. `Cc1c(F)cccc1-c1ccc2nc(N)c(C(=O)N[C@@H]3C[C@@H]3F)n2c1` [Example 108] gave an IC50 of 101 to 500 nM. `Nc1nc2ccc(-c3cc[nH]c3)cn2c1C(=O)[C@@H]1C[C@@H]1F` [Example 125] was tested, and the IC50 was > 1000 nM. `Nc1nc2ccc(-c3ccc4occc4c3)cn2c1C(=O)[C@@H]1C[C@@H]1F` [Example 63] was tested, and the IC50 was 1 to 100 nM. For `CC(=O)NNC(=O)c1c(N)nc2ccc(-c3cccc(F)c3C)cn12` [Example 112, N′-acetyl-2-amino-6-(3-fluoro-2-methylphenyl)imidazo[1,2-a]pyridine-3-carbohydrazide], the IC50 was > 1000 nM. In the case of `Nc1nc2ccc(Br)cn2c1C(=O)[C@@H]1C[C@@H]1F` [Example 4], the IC50 is reported as > 1000 nM. With `Cc1c(F)cccc1-c1ccc2nc(NCCN(C)C)c(C(=O)[C@@H]3C[C@@H]3F)n2c1` [Example 24, (2-((2-(dimethylamino)ethyl)amino)-6-(3-fluoro-2-methylphenyl)imidazo[1,2-a]pyridin-3-yl)((1S,2S)-2-fluorocyclopropyl)methanone] the IC50 was > 1000 nM. `Cc1c(F)cccc1-c1ccc2nc(N)c(C(=O)c3ccccc3)n2c1` [Example 13] gave an IC50 of 101 to 500 nM. Compound `Nc1nc2ccc(-c3ccc(N4CCNCC4)cc3)cn2c1C(=O)[C@@H]1C[C@@H]1F` [Example 52] has an IC50 of 501 to 1000 nM. With `Cc1c(F)cccc1-c1ccc2nc(N3CCCC3)c(C(=O)[C@@H]3C[C@@H]3F)n2c1` [Example 71, (6-(3-fluoro-2-methylphenyl)-2-(pyrrolidin-1-yl)imidazo[1,2-a]pyridin-3-yl)((1S,2S)-2-fluorocyclopropyl)methanone] the IC50 was > 1000 nM. In the case of `Nc1nc2ccc(-c3ccc4[nH]ncc4c3Cl)cn2c1C(=O)[C@@H]1C[C@@H]1F` [Example 81], the IC50 is reported as 1 to 100 nM. For `Nc1nc2ccc(-c3cnc4[nH]ccc4c3)cn2c1C(=O)C1CCNC1` (stereo not shown) [Example 91], the IC50 was 101 to 500 nM. `Nc1nc2c(F)cc(-c3cccc4[nH]ccc34)cn2c1C(=O)[C@@H]1C[C@@H]1F` [Example 96] gave an IC50 of 101 to 500 nM. Compound `Cc1c(F)cccc1-c1ccc2nc(N)c(C(=O)C3CC(F)(F)C3)n2c1` [Example 46] has an IC50 of 501 to 1000 nM. For `Cc1cccc(F)c1-c1ccc2nc(N)c(C(=O)[C@@H]3C[C@@H]3F)n2c1` [Example 18], the IC50 was 101 to 500 nM. `Cc1ccc(N)cc1-c1ccc2nc(N)c(C(=O)[C@@H]3C[C@@H]3F)n2c1` [Example 142] was tested, and the IC50 was 1 to 100 nM. With `Nc1nc2ccc(-c3cccc(F)c3CO)cn2c1C(=O)[C@@H]1C[C@@H]1F` [Example 127] the IC50 was > 1000 nM.
